Source: patent US7985837B2, “Two component Bacillus lantibiotic and methods for producing and using the same” (The Board of Trustees of the University of Illinois, priority 2006, dated 2011)

Assays:
[1] = system: Lactococcus lactis CNRZ 117; experiment: Bioactivity assay, solid agar medium test (zones of inhibition); assay type: cell-based; details: for zone of inhibition, both modified peptides together: prepared in vitro: HalA1-Xa/HalA2-Xa modified by HalM1/HalM2, leader removed by Factor Xa, both peptides applied
Procedure: Bioactivity Assay. The inhibitory activity of haloduracin isolated from the producing strain and prepared in vitro was assayed using the solid agar medium test. Liquid molten GM17 agar (4% M17, 0.5% glucose, 1.5% agar) was cooled to 50° C. and seeded with an overnight culture of the indicator strain Lactococcus lactis CNRZ 117. After agar solidification in a Petri dish, samples were applied to a small well created in the medium. Assay samples were typically concentrated to dryness using a speed vac and rehydrated in a small volume (5-15 μL) of sterile water for application purposes. The cell-free solution isolated from B. halodurans C-125 was applied directly to the plate without further concentration. Plates were incubated overnight at room temperature and zones of inhibition were observed the next day.

[2] = Ltn1 and Ltn2 acting in synergy in a 1:1 ratio; cited from earlier work

## Hal1: mature haloduracin alpha peptide from HalA1, SEQ ID NO:5; three dehydrations and one disulfide
[1]; peptides isolated from B. halodurans, reduced and alkylated with iodoacetamide (Hal1 two adducts, Hal2 zero adducts), excess IAA removed
  zones of growth inhibition / antimicrobial activity after iodoacetamide modification: did not abolish antimicrobial activity

## haloduracin: two-component lantibiotic of Bacillus halodurans C-125 composed of the modified peptides Hal1 (SEQ ID NO:5) and Hal2 (SEQ ID NO:6)
[1]; cell-free supernatant isolated from producer strain B. halodurans C-125, applied to indicator strain
  zone of growth inhibition: a zone of growth inhibition was produced
[1]
  zone of inhibition, both modified peptides together: comparable to the bactericidal effects exhibited by the peptides isolated from the producer strain
[1]; listed as haloduracin peptides prepared in vitro
  zone of inhibition, both modified peptides together: zone of inhibition comparable to that produced by Hal1 and Hal2 isolated from B. halodurans

## lacticin 3147
[2]
  antibacterial activity: nanomolar antibacterial activity
